Reference: patent US5061720A, “Substituted-4-thiazolidinone derivatives” (A. H. Robins Company, Inc., priority 1989, dated 1991)

Tests used:
5-lipoxygenase = target: T1, 5-lipoxygenase (Homo sapiens, UniProt P09917); experiment: 5-Lipoxygenase Assay (production of 5-HETE from arachidonic acid in polymorphonuclear leukocytes stimulated by A23187); format: cell-based; conditions: inhibition of production of 5-HETE, human PMN cells, calcium ionophore A23187, 37° C.
T1 construct: Polymorphonuclear leukocytes were obtained from whole human blood; endogenous in cells; host or cells: human polymorphonuclear leukocytes from whole blood, stimulated with A23187
T1 sequence (P09917 1-674): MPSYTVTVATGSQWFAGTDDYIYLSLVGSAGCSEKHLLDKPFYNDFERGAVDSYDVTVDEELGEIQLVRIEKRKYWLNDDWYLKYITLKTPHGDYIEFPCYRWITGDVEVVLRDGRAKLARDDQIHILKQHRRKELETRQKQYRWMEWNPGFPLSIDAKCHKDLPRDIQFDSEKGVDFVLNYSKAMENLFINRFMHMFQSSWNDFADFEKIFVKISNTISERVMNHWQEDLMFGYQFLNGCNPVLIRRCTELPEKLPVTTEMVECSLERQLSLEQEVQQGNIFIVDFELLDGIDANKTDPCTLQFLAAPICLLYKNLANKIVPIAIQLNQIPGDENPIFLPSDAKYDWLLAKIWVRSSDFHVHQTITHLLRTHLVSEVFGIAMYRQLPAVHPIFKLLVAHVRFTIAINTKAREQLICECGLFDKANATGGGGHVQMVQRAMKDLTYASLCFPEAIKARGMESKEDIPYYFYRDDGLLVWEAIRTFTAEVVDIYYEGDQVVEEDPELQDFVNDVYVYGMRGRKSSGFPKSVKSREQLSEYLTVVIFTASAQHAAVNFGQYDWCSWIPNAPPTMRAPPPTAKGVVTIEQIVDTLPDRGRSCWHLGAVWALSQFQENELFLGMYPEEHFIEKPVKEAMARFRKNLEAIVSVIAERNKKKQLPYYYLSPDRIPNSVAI
Protocol: The production of 5-HETE from arachidonic acid in human polymorphonuclear leukocytes stimulated by the calcium ionophore A23187 (Calbiochemicals) was measured by reverse phase high pressure liquid chromatography. This procedure is a modification of the procedure of Sun and McGuire, PROSTAGLANDINS, 26, 211-221 (1983). Addition of substances to the test system that inhibit 5-lipoxygenases cause a decrease in the production of 5-HETE and is thus determined in comparison to reference and control articles also added to the reaction system.
Polymorphonuclear leukocytes were obtained from whole human blood by the procedure of Skoog and Beck, BLOOD, 11, 436-454 (1956). […] The tube is incubated for an additional 10 min at 37° C. and the incubations terminated by addition of 1.5 mL of acetone and cooling to 0° C. 13-Hydroxyoctadecatrienoic acid (13-HODT) (5 μL of 0.2 mM methanolic solution) is added for an internal reference standard. The tube is stored at -20° C. under argon for 4-18 hr. Centrifugation at 1000×g for 10 min causes protein precipitate to form a pellet. The acetone layer is evaporated under a stream of nitrogen and the resultant lipid residue containing the arachidonic acid metabolites and 13-HODT is dissolved in 0.5 mL of methanol and stored at -20° C. until analyzed by high-pressure liquid chromatography (HPLC).
For analysis, a 150-μL aliquot of the methanol solution is evaporated under a stream of argon. The residue is reconstituted with 100 μL of a 1:1 methanol-water mixture and sonified for 15-20 seconds and the mixture analyzed by HPLC (C18 reversed phase Econophere column, methanol:water:acetic acid 79:25:0.2 v/v/v used for elution). Test, reference, and control articles are evaluated in duplicate. The inhibition is reported as that concentration which will inhibit by 50% the production of 5-HETE.

guinea pig skin = experiment: UV-Erythema in Guinea Pigs; format: in vivo; design: key: +: active; -: inactive; conditions: topical, 50 μL of cream with 1.0 mg test article per 1 g, immediately after UV exposure; active = composite score significantly lower than control, Dunnett's t-test p≤0.05
Protocol: I. Preparation of Formulation (cream)
All drugs tested were prepared by thoroughly incorporating 1.0 mg of the test article into 1 g of a pH 7.0 cream vehicle of the following composition.
methyl glucose sesquistearate 1.6%
methyl gluceth-20 sesquistearate 2.4%
emulsifying wax, N.F. 5.0%
mineral oil (heavy), U.S.P. 1.0%
white petrolatum, U.S.P. 5.0%
stearic acid, U.S.P. 2.5%
sodium benzoate, N.F. 0.1%
magnesium aluminum silicate 1.5%
deionized water, pH 7.0 64.8%
The preparations were packed into 1-cc plastic syringes.
II. Pharmacological Assay
The backs of female, English short hair guinea pigs (250-500 g) were shaved and depilated with Nair®. Control and treated groups each consisted of 5 animals, and selection of the animals and the control and treatment groups was achieved by random procedures. A rubber sheet with three one-half inch holes spaced one-half inch apart was draped over backs of the guinea pigs. The guinea pigs were then exposed to ultraviolet (UV) light (Hanovia Model 10, ~650-800 μW/cm^2) for 15 seconds by holding the animals against the light source. Fifty μL of the test drug or reference drug (indomethacin or bromfenac) preparation were immediately rubbed onto the skin, either on the area exposed to UV light or to an area adjacent to the UV light exposed skin. The degree of erythema for each exposed area was scored at various times following exposure according to the following scale:
1=slight redness with faint outline
2=moderate to marked redness with distinct outline
The score was totaled for each guinea pig (maximum score is 6). The Dunnett's t-test was used to determine significant (p≤0.05) differences from the control (placebo treated) group.

Row | Structure (SMILES) | IC50 (5-lipoxygenase) | U.V. erythema (+ = active, - = inactive) (guinea pig skin)
1 | CCCC[C@@H]1S[C@@H](c2cccc(Oc3ccccc3)c2)NC1=O (relative stereo) [Example 83, 5-Butyl-2-(3-phenoxyphenyl)-4-thiazolidinone] | < 10 µM | -
2 | CCCCC1SC(c2cccc(Oc3ccccc3)c2)N(CCc2ccccc2)C1=O (centres unmarked) [Example 17, 5-Butyl-2-(3-phenoxyphenyl)-3-(2-phenylethyl)-4-thiazolidinone] | 10 µM | -
3 | CCCCC1SC(c2cccc(Oc3ccccc3)c2)N(CCCCc2ccccc2)C1=O (centres unmarked) [Example 1, 5-Butyl-2-(3-phenoxyphenyl)-3-(4-phenylbutyl)-4-thiazolidinone] | > 100 µM | +
4 | CC1SC(c2cccc(Oc3ccccc3)c2)N(CCCCc2ccccc2)C1=O (centres unmarked) [Example 7, 5-Methyl-2-(3-phenoxyphenyl)-3-(4-phenylbutyl)-4-thiazolidinone] | < 20 µM | +
5 | CCCC[C@@H]1S[C@H](c2cccc(Oc3ccccc3)c2)N(CCCCCC(=O)OCC)C1=O (relative stereo) [Example 51] | ~15 µM | -
6 | CCCCC1SC(c2cccc(Oc3ccccc3)c2)N(CCCCC(=O)O)C1=O (centres unmarked) [Example 45, 5-Butyl-4-oxo-2-(3-phenoxyphenyl)-3-thiazolidinepentanoic acid] | ~15 µM | +
7 | CCCCC1SC(c2cccc(C(=O)c3ccccc3)c2)N(CCCCc2ccccc2)C1=O (centres unmarked) [Example 8, 2-(3-Benzoylphenyl)-5-butyl-3-(4-phenylbutyl)-4-thiazolidinone] | ~100 µM | +
